Tested on: Caco2 cells
Test: Activity of mitochondrial ETC complexes I-IV in Caco2 cells
Format: cell-based, human
Settings: FLVCR1a-silenced vs scramble shRNA Caco2 cells
Excerpt: (A, C, E) Activities of the mitochondrial electron transport chain complexes I-IV. FLVCR1a-silenced Caco2 (A), SKCO1 (C) or C80 cells (E) are compared to cells expressing a scramble shRNA. Results were expressed as nmol NAD^+/min/mg mitochondrial protein for complex I, nmol reduced cytochrome c/min/mg mitochondrial protein for complexes II-III, nmol oxidized cytochrome c/min/mg mitochondrial protein for complex IV. Data represent mean±SEM, n=3. For statistical analyses, an unpaired Student's t-test was used; *=p<0.05, **=p<0.01. (B, D, F) Mitochondrial ATP levels measured by a bioluminescent assay kit. FLVCR1a-silenced Caco2 (B), SKCO1 (D) or C80 cells (F) are compared to cells expressing a scramble shRNA. Results are expressed as nmol/mg mitochondrial proteins. Data represent mean±SEM, n=3. […] Results were expressed as nmol NAD^+/min/mg mitochondrial protein for complex I, nmol reduced cytochrome c/min/mg mitochondrial protein for complexes II-III, nmol oxidized cytochrome c/min/mg mitochondrial protein for complex IV. […] (H) Mitochondrial ATP levels measured by a bioluminescent assay kit in Caco2 cells overexpressing FLVCR1a (indicated as FLVCR1a+) compared to cells stably transduced with an empty vector. Results are expressed as nmol/mg mitochondrial proteins. […]
The activity of mitochondria respiration complexes was measured according to (Wibom et al., 2002).

## FLVCR1a shRNA: shRNA specifically down-regulating FLVCR1a without targeting FLVCR1b; pLKO.1 lentiviral clone TRCN0000059599, antisense SEQ ID No.: 2 (antisense TTGCTAATGATGCTGTACTGG; sense CCAGTACAGCATCATTAGCAA)
  activity of mitochondrial respiratory chain complexes: increased activity of all the complexes involved in the mitochondrial respiratory chain

Reference: patent publication US20240285670A1, “THERAPEUTIC TREATMENT OF TUMORS BY BLOCKING THE HEME SYNTHESIS-EXPORT AXIS” (Università degli Studi di Torino, priority 2021, published 2024)
